In patent publication US7902373B2 (Pfizer Inc, priority 2006, dated 2011) one finds IC50 data, which are given here for 35 compounds.

In general, pIC50 refers to the IC50 on a negative log10 scale, so that one unit is a factor of ten.

pIC50: −log10 of the molar value.

The target of the test is human recombinant H-PGDS (Homo sapiens, UniProt O60760). Put plainly: Fluorescence intensity h-PGDS TBA enzyme assay. The test is classed as biochemical. To be noted: Examples up to 622 (and 3a, 3b).
Sequence of human recombinant H-PGDS (O60760 whole entry): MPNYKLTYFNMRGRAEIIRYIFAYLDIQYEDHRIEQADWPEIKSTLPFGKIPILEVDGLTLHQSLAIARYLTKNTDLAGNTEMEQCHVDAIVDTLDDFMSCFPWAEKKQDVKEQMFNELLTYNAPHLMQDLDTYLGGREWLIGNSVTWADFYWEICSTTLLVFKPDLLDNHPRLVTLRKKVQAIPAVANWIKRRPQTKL
As for `O=C(NC1CCN(Cc2ccc(Br)cn2)CC1)c1ccc(-c2cccc(F)c2)nc1` [Example 475, N-{1-[(5-Bromopyridin-2-yl)methyl]piperidin-4-yl}-6-(3-fluorophenyl)nicotinamide], the pIC50 was 8.39.

`O=C(NC1CCN(Cc2ccc(CF)nc2)CC1)c1ccc(-c2cccc(F)c2)nc1` [Example 476, N-(1-{[6-(Fluoromethyl)pyridin-3-yl]methyl}piperidin-4-yl)-6-(3-fluorophenyl)nicotinamide]: the pIC50 was 9.03.

Consider `Cc1ccc(-c2nc(CN3CCC(NC(=O)c4ccc(-c5cccc(F)c5)nc4)CC3)n(C)n2)nn1` [Example 477, 6-(3-Fluorophenyl)-N-(1-{[1-methyl-3-(6-methylpyridazin-3-yl)-1H-1,2,4-triazol-5-yl]methyl}piperidin-4-yl)nicotinamide], for which the pIC50 was 8.39.

For the compound `Cn1nc(-c2ccccn2)nc1CN1CCC(NC(=O)c2ccc(-c3cccc(F)c3)nc2)CC1` [Example 478, 6-(3-Fluorophenyl)-N-{1-[(1-methyl-3-pyridin-2-yl-1H-1,2,4-triazol-5-yl)methyl]piperidin-4-yl}nicotinamide], the pIC50 is 8.70.

As to `Cc1nn(C)c(N2CCCOCC2)c1CN1CCC(NC(=O)c2ccc(-c3cccc(F)c3)nc2)CC1` [Example 479, N-(1-{[1,3-Dimethyl-5-(1,4-oxazepan-4-yl)-1H-pyrazol-4-yl]methyl}piperidin-4-yl)-6-(3-fluorophenyl)nicotinamide], the pIC50 is 9.38.

On to `Cn1nccc1-c1nc(CN2CCC(NC(=O)c3ccc(-c4cccc(F)c4)nc3)CC2)nn1C` [Example 480, 6-(3-Fluorophenyl)-N-(1-{[1-methyl-5-(1-methyl-1H-pyrazol-5-yl)-1H-1,2,4-triazol-3-yl]methyl}piperidin-4-yl)nicotinamide], for which the pIC50 is 8.57.

Regarding `Cn1nc(-c2ncccn2)nc1CN1CCC(NC(=O)c2ccc(-c3cccc(F)c3)nc2)CC1` [Example 481, 6-(3-Fluorophenyl)-N-{1-[(1-methyl-3-pyrimidin-2-yl-1H-1,2,4-triazol-5-yl)methyl]piperidin-4-yl}nicotinamide], the pIC50 is 8.61.

Take `Cn1nc(CN2CCC(NC(=O)c3ccc(-c4cccc(F)c4)nc3)CC2)nc1-c1ccccc1F` [Example 482, 6-(3-Fluorophenyl)-N-(1-{[5-(2-fluorophenyl)-1-methyl-1H-1,2,4-triazol-3-yl]methyl}piperidin-4-yl)nicotinamide]: the pIC50 was 8.62.

Take `Cn1nc(-c2cccc(F)c2)nc1CN1CCC(NC(=O)c2ccc(-c3cccc(F)c3)nc2)CC1` [Example 483, 6-(3-Fluorophenyl)-N-(1-{[3-(3-fluorophenyl)-1-methyl-1H-1,2,4-triazol-5-yl]methyl}piperidin-4-yl)nicotinamide]: the pIC50 was 8.45.

For `Cn1nc(CN2CCC(NC(=O)c3ccc(-c4cccc(F)c4)nc3)CC2)nc1-c1ccc(F)cc1` [Example 484, 6-(3-Fluorophenyl)-N-(1-{[5-(4-fluorophenyl)-1-methyl-1H-1,2,4-triazol-3-yl]methyl}piperidin-4-yl)nicotinamide], the pIC50 is 8.57.

Turning to `Cn1nc(CN2CCC(NC(=O)c3ccc(-c4cccc(F)c4)nc3)CC2)nc1-c1ccccn1` [Example 485, 6-(3-Fluorophenyl)-N-{1-[(1-methyl-5-pyridin-2-yl-1H-1,2,4-triazol-3-yl)methyl]piperidin-4-yl}nicotinamide], the pIC50 is 8.56.

Turning to `O=C(NC1CCN(Cc2ccc(OC(F)F)c(OC3CC3)c2)CC1)c1ccc(-c2cccc(F)c2)nc1` [Example 486, N-{1-[3-(Cyclopropyloxy)-4-(difluoromethoxy)benzyl]piperidin-4-yl}-6-(3-fluorophenyl)nicotinamide], the pIC50 is 8.63.

On to `COc1c(C)cnc(CN2CCC(NC(=O)c3ccc(-c4cccc(F)c4)nc3)CC2)c1C` [Example 487], for which the pIC50 was 9.43.

In the case of `O=C(NC1CCN(Cc2ccc(-c3ccn[nH]3)cc2)CC1)c1ccc(-c2cccc(F)c2)nc1` [Example 488, 6-(3-Fluorophenyl)-N-{1-[4-(1H-pyrazol-5-yl)benzyl]piperidin-4-yl}nicotinamide], the pIC50 was 9.31.

For `Nc1ncncc1CN1CCC(NC(=O)c2ccc(-c3cccc(F)c3)nc2)CC1` [Example 489, N-{1-[(4-Aminopyrimidin-5-yl)methyl]piperidin-4-yl}-6-(3-fluorophenyl)nicotinamide], the pIC50 was 8.93.

Consider `O=C(NC1CCN(Cc2cccc3c2OCC3)CC1)c1ccc(-c2cccc(F)c2)nc1` [Example 490, N-[1-(2,3-Dihydro-1-benzofuran-7-ylmethyl)piperidin-4-yl]-6-(3-fluorophenyl)nicotinamide], for which the pIC50 was 9.22.

Regarding `COc1ccc2nccc(CN3CCC(NC(=O)c4ccc(-c5cccc(F)c5)nc4)CC3)c2n1` [Example 491, 6-(3-Fluorophenyl)-N-{1-[(6-methoxy-1,5-naphthyridin-4-yl)methyl]piperidin-4-yl}nicotinamide], the pIC50 was 8.62.

With `O=C(NC1CCN(Cc2ccc(-n3ccnn3)cc2)CC1)c1ccc(-c2cccc(F)c2)nc1` [Example 492, 6-(3-Fluorophenyl)-N-{1-[4-(1H-1,2,3-triazol-1-yl)benzyl]piperidin-4-yl}nicotinamide], the pIC50 is 9.55.

For the compound `O=C(NC1CCN(Cc2ccc(-n3nccn3)cc2)CC1)c1ccc(-c2cccc(F)c2)nc1` [Example 493, 6-(3-Fluorophenyl)-N-{1-[4-(2H-1,2,3-triazol-2-yl)benzyl]piperidin-4-yl}nicotinamide], the pIC50 is 8.96.

For the compound `COc1cc(CN2CCC(NC(=O)c3ccc(-c4cccc(F)c4)nc3)CC2)cc2c1OCCO2` [Example 494, 6-(3-Fluorophenyl)-N-{1-[(8-methoxy-2,3-dihydro-1,4-benzodioxin-6-yl)methyl]piperidin-4-yl}nicotinamide], the pIC50 is 9.09.

`Cn1nncc1CN1CCC(NC(=O)c2ccc(-c3cccc(F)c3)nc2)CC1` [Example 495, 6-(3-Fluorophenyl)-N-{1-[(1-methyl-1H-1,2,3-triazol-5-yl)methyl]piperidin-4-yl}nicotinamide]: the negative-log IC50 (pIC50) is 9.39.

As to `COc1cc(CN2CCC(NC(=O)c3ccc(-c4cccc(F)c4)nc3)CC2)ccc1C` [Example 496, 6-(3-Fluorophenyl)-N-[1-(3-methoxy-4-methylbenzyl)piperidin-4-yl]nicotinamide], the pIC50 was 9.24.

For `O=C1COc2ccc(CN3CCC(NC(=O)c4ccc(-c5cccc(F)c5)nc4)CC3)cc2N1` [Example 497, 6-(3-Fluorophenyl)-N-{1-[(3-oxo-3,4-dihydro-2H-14-benzoxazin-6-yl)methyl]piperidin-4-yl}nicotinamide], the pIC50 is 8.97.

As for `Cn1ncc(CN2CCC(NC(=O)c3ccc(-c4cccc(F)c4)nc3)CC2)c1-c1ccccc1` [Example 498, 6-(3-Fluorophenyl)-N-{1-[(1-methyl-5-phenyl-1H-pyrazol-4-yl)methyl]piperidin-4-yl}nicotinamide], the pIC50 was 9.52.

`COc1ccc(-c2c(CN3CCC(NC(=O)c4ccc(-c5cccc(F)c5)nc4)CC3)cnn2C)cc1` [Example 499, 6-(3-Fluorophenyl)-N-(1-{[5-(4-methoxyphenyl)-1-methyl-1H-pyrazol-4-yl]methyl}piperidin-4-yl)nicotinamide]: the pIC50 is 8.79.

Regarding `Cn1ncc(CN2CCC(NC(=O)c3ccc(-c4cccc(F)c4)nc3)CC2)c1-c1ccc(F)cc1` [Example 500, 6-(3-Fluorophenyl)-N-(1-{[5-(4-fluorophenyl)-1-methyl-1H-pyrazol-4-yl]methyl}piperidin-4-yl)nicotinamide], the pIC50 is 9.20.

For `CS(=O)(=O)Nc1cccc(CN2CCC(NC(=O)c3ccc(-c4cccc(F)c4)nc3)CC2)c1` [Example 501, 6-(3-Fluorophenyl)-N-(1-{3-[(methylsulfonyl)amino]benzyl}piperidin-4-yl)nicotinamide], the negative logarithm of the IC50 (pIC50) is 9.36.

Turning to `O=C(NC1CCN(Cc2ccc3cc[nH]c3c2)CC1)c1ccc(-c2cccc(F)c2)nc1` [Example 502, 6-(3-Fluorophenyl)-N-[1-(1H-indol-6-ylmethyl)piperidin-4-yl]nicotinamide], the pIC50 was 8.70.

Regarding `Cc1ccc(CN2CCC(NC(=O)c3ccc(-c4cccc(F)c4)nc3)CC2)c(F)c1` [Example 503, N-[1-(2-Fluoro-4-methylbenzyl)piperidin-4-yl]-6-(3-fluorophenyl)nicotinamide], the pIC50 is 8.57.

For the compound `Cc1cc(C)n2nc(CN3CCC(NC(=O)c4ccc(-c5cccc(F)c5)nc4)CC3)nc2n1` [Example 504, N-{1-[(5,7-Dimethyl[1,2,4]triazolo[1,5-a]pyrimidin-2-yl)methyl]piperidin-4-yl}-6-(3-fluorophenyl)nicotinamide], the pIC50 was 8.55.

`CC1(CN2CCC(NC(=O)c3ccc(-c4cccc(F)c4)nc3)CC2)CC1` [Example 505, 6-(3-Fluorophenyl)-N-{1-[(1-methylcyclopropyl)methyl]piperidin-4-yl}nicotinamide]: the negative-log IC50 (pIC50) is 9.38.

Consider `COc1cccc(-c2c(CN3CCC(NC(=O)c4ccc(-c5cccc(F)c5)nc4)CC3)cnn2C)c1` [Example 506, 6-(3-Fluorophenyl)-N-(1-{[5-(3-methoxyphenyl)-1-methyl-1H-pyrazol-4-yl]methyl}piperidin-4-yl)nicotinamide], for which the pIC50 was 8.90.

`Cn1ncc(CN2CCC(NC(=O)c3ccc(-c4cccc(F)c4)nc3)CC2)c1-c1cccc(F)c1` [Example 507, 6-(3-Fluorophenyl)-N-(1-{[5-(3-fluorophenyl)-1-methyl-1H-pyrazol-4-yl]methyl}piperidin-4-yl)nicotinamide]: the pIC50 was 9.26.

For the compound `COc1ccccc1-c1c(CN2CCC(NC(=O)c3ccc(-c4cccc(F)c4)nc3)CC2)cnn1C` [Example 508, 6-(3-Fluorophenyl)-N-(1-{[5-(2-methoxyphenyl)-1-methyl-1H-pyrazol-4-yl]methyl}piperidin-4-yl)nicotinamide], the pIC50 was 9.26.

Consider `Cc1ccccc1-c1c(CN2CCC(NC(=O)c3ccc(-c4cccc(F)c4)nc3)CC2)cnn1C` [Example 509, 6-(3-Fluorophenyl)-N-(1-{[1-methyl-5-(2-methylphenyl)-1H-pyrazol-4-yl]methyl}piperidin-4-yl)nicotinamide], for which the pIC50 is 9.18.
